Here are results for four compounds from patent US20110003866A1, “NOVEL 2-DIMETHYLAMINO-3-AMIDO-6-AMINO-PYRIDINE DERIVATIVES USEFUL AS POTASSIUM CHANNEL ACTIVATORS” (priority 2007, published 2011).

The target of the experiment is T1, human Kv72+3 channels (Homo sapiens, UniProt O43525+O43526).
T1 construct: expressed in transfected cells; host or cells: HEK293
Kind of experiment: patch-clamp, HEK293 cell lines stably expressing human Kv7.2+3 channels. The conditions noted are these: conc. 0.03 μM, −30 mV, 20 ms; current relative to baseline current defined as 100%. The class given is cell-based. The source says: The effect obtained by these channel activators is described as a percentage increase in baseline current at a given concentration. The baseline current is defined as 100%, and an increase in current is expressed relative to this, i.e. an increase from 1 nA to 1.2 nA is reported as 120%.
Background: Patch clamp records ionic current or voltage across a cell membrane.
On to `CN(C)c1nc(NCc2ccc(F)cc2)ccc1NC(=O)Cc1ccc(F)c(F)c1` [Compound 1, N-[2-Dimethylamino-6-(4-fluoro-benzylamino)-pyridin-3-yl]-2-(3,4-difluoro-phenyl)-acetamide], for which the “IK (%)” value was determined as 215%.

Take `CN(C)c1nc(NCc2ccc(F)cc2)ccc1NC(=O)Cc1ccc(C(F)(F)F)c(F)c1` [Compound 3, N-[2-Dimethylamino-6-(4-fluoro-benzylamino)-pyridin-3-yl]-2-(3-fluoro-4-trifluoromethyl-phenyl)-acetamide]: the “IK (%)” value was 162%.

For the compound `CN(C)c1nc(NCc2ccc(F)cc2)ccc1NC(=O)CC(C)(C)C` [Compound 8, N-[2-Dimethylamino-6-(4-fluoro-benzylamino)-pyridin-3-yl]-3,3-dimethyl-butyramide], the “IK (%)” value is reported as 233%.

Consider `CN(C)c1nc(NCc2ccc(F)cc2)ccc1NC(=O)CCc1cccc(F)c1` [Compound 5, N-[2-Dimethylamino-6-(4-fluoro-benzylamino)-pyridin-3-yl]-3-(3-fluoro-phenyl)-propionamide], for which the “IK (%)” value is listed as 174%.
